Source: patent publication US8338422B2, “Indolin-2-ones and aza-indolin-2-ones” (Janssen Pharmaceutica NV, priority 2007, dated 2012)

Experiments:
PLK4 (h) = PLK4 (h) (Homo sapiens, UniProt O00444); assay: PLK-4 human kinase assay (SPA); type: biochemical; details: read-out: PLK4 pIC50 (converted)
Procedure, shortened: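 Radiometric readout: 33P-labelled peptide captured on streptavidin SPA beads after EDTA stop, imaged by Leadseeker. Reaction ran 60 min at room temperature in Hepes pH 8.0 buffer. It contained 1 μM ATP with 2 nM [γ-33P]ATP, 10 μM biotinylated peptide and PLK4 (h) at 19 μg/ml.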

AuroraB (h) = AuroraB (h) (Homo sapiens, UniProt Q96GD4); assay: Aurora-B human kinase assay (SPA); type: biochemical; details: read-out: AuroraB pIC50 (converted)
Procedure, shortened: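 Scintillation proximity assay: AuroraB (h) at 0.5 μg/ml with 3 μM biotinylated peptide, 0.5 μM ATP and 2.2 nM [γ-33P]ATP in 60 mM Hepes pH 7.5, 3 mM MgCl2, 3 mM MnCl2, 2 mM DTT. 60 min at room temperature, EDTA stop, streptavidin PVT beads read on Leadseeker.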

GSK3β (h) = GSK3β (h) (Homo sapiens, UniProt P49841); assay: GSK-3β human kinase assay (SPA); type: biochemical; details: read-out: GSK3B pIC50 (converted)
Procedure, shortened: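 Radiometric SPA read-out: after EDTA stop, biotinylated 33P-labelled peptide bound streptavidin PVT beads and was imaged on Leadseeker. Reaction: 60 min, room temperature, GSK3β (h) at 1 μg/ml, 1 μM substrate peptide, 1 μM ATP with 2 nM [γ-33P]ATP, Tris pH 7.4/MgCl2/DTT buffer.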

CDK1/CyclinB (h) = CDK1/CyclinB (h) (Homo sapiens, UniProt P06493); assay: CDK1/CyclinB human kinase assay (FRET); type: biochemical; details: read-out: CDK1 pIC50 (converted)
Procedure, shortened: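 Z'-LYTE FRET format: 0.2 μg/ml enzyme with 2 μM Ser/Thr peptide 12 and 10 μM ATP in 50 mM Hepes pH 7.5, 10 mM MgCl2, 1 mM EGTA, 0.01% Brij-35, 60 min at room temperature. Protease development 60 min; coumarin/fluorescein emission ratio (460/538 nm, excitation 390 nm) reports phosphorylation.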

SKOV3 = assay: Cellular proliferation assay (Alamar blue), SKOV3; type: cell-based; details: Homo sapiens, SK-OV-3, SKOV3 cells, 72 hours with compound, 10% FCS, read-out: pIC50 SKOV3 (converted)
Experimental: (§1) […] functional properties of these compounds was tested in cellular proliferation assays on a panel of different cell lines in the presence of 10% FCS serum (37° C. and 5% (v/v) CO2). In a first step these cells were seeded and incubated for 24 hours in the absence of compound. In the second step the cells were incubated for 72 hours with the compounds to be tested for 72 hours. The viable cell number was finally assessed in a standard Alamar blue cell viability assay.
(§2) The viable cell number was assessed by incubation for either 4 h (HCT-116, H1299, H460) 6 h (SKOV3, HT29, U87-MG, Colo205) or 24 h (A2780, PC3, MDA-MB-231, A549, MCF-7) with Alamar blue (Resazurin 9 μg/ml, K-Ferrocyanide 90 μM K-Ferricyanide 90 μM) and the converted fluorescent product was quantified on a fluorescent plate readed (544 nm/590 nm). Effect of the compounds is calculated as of on control cells.

HT-29 = assay: Cellular proliferation assay (Alamar blue), HT-29; type: cell-based; details: Homo sapiens, HT-29 cells, 72 hours with compound, 10% FCS, read-out: pIC50 HT-29 (converted)
Experimental: as §1, §2

HCT-116 = assay: Cellular proliferation assay (Alamar blue), HCT-116; type: cell-based; details: Homo sapiens, HCT-116, 72 h, HCT-116 cells, 72 hours with compound, 10% FCS, read-out: pIC50 HCT-116 (converted)
Procedure, shortened: (§3)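 Proliferation was assessed over 72 h of compound treatment, following 24 h of seeding without compound, under 10% FCS, 37° C. and 5% CO2. Fluorescent resazurin product was measured and compared with control cells.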

Colo205 = assay: Cellular proliferation assay (Alamar blue), Colo205; type: cell-based; details: Homo sapiens, COLO 205, Colo205 cells, 72 hours with compound, 10% FCS, read-out: pIC50 Colo205 (converted)
Experimental: as §1, §2

H1299 = assay: Cellular proliferation assay (Alamar blue), H1299; type: cell-based; details: Homo sapiens, NCI-H1299, 72 h, H1299 cells, 72 hours with compound, 10% FCS, read-out: pIC50 H1299 (converted)
Procedure, shortened: as §3

A549 = assay: Cellular proliferation assay (Alamar blue), A549; type: cell-based; details: Homo sapiens, A549 cells, 72 hours with compound, 10% FCS, read-out: pIC50 A549 (converted)
Experimental: as §1, §2

H460 = assay: Cellular proliferation assay (Alamar blue), H460; type: cell-based; details: Homo sapiens, NCI-H460, H460 cells, 72 hours with compound, 10% FCS, read-out: pIC50 H460 (converted)
Experimental: as §1, §2

MDA/MB231 = assay: Cellular proliferation assay (Alamar blue), MDA/MB231; type: cell-based; details: Homo sapiens, MDA-MB-231, 72 h, MDA/MB231 cells, 72 hours with compound, 10% FCS, read-out: pIC50 MDA/MB231 (converted)
Procedure, shortened: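 Viable cell number was assessed by resazurin-based Alamar blue fluorescence (544 nm/590 nm) after 72 h compound exposure in 10% FCS at 37° C, which followed a 24 h compound-free seeding period. Dye incubation was 24 h for MDA-MB-231 and 4 h for H460; results expressed versus control cells.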

MCF-7 = assay: Cellular proliferation assay (Alamar blue), MCF-7; type: cell-based; details: Homo sapiens, MCF7, MCF-7 cells, 72 hours with compound, 10% FCS, read-out: pIC50 MCF-7 (converted)
Experimental: as §1, §2

DU-145 = assay: Cellular proliferation assay (Alamar blue), DU-145; type: cell-based; details: Homo sapiens, DU-145 cells, 72 hours with compound, 10% FCS, read-out: pIC50 DU-145 (converted)
Experimental: as §1, §2

A431 = assay: Cellular proliferation assay (Alamar blue), A431; type: cell-based; details: Homo sapiens, A-431, A431 cells, 72 hours with compound, 10% FCS, read-out: pIC50 A431 (converted)
Experimental: as §1, §2

PC-3 = assay: Cellular proliferation assay (Alamar blue), PC-3; type: cell-based; details: Homo sapiens, PC-3, 72 h, PC-3 cells, 72 hours with compound, 10% FCS, read-out: pIC50 PC-3 (converted)
Procedure, shortened: as §3

SK-N-SH = assay: Cellular proliferation assay (Alamar blue), SK-N-SH; type: cell-based; details: Homo sapiens, SK-N-SH cells, 72 hours with compound, 10% FCS, read-out: pIC50 SK-N-SH (converted)
Experimental: as §1, §2

A2780 = assay: Cellular proliferation assay (Alamar blue), A2780; type: cell-based; details: Homo sapiens, A2780, 72 h, A2780 cells, 72 hours with compound, 10% FCS, read-out: pIC50 A2780 (converted)
Procedure, shortened: as §3

U87MG = assay: Cellular proliferation assay (Alamar blue), U87MG; type: cell-based; details: Homo sapiens, U-87 MG, 72 h, U87MG cells, 72 hours with compound, 10% FCS, read-out: pIC50 U87MG (converted)
Procedure, shortened: as §3

PLK4 (h), sequence (O00444 whole entry): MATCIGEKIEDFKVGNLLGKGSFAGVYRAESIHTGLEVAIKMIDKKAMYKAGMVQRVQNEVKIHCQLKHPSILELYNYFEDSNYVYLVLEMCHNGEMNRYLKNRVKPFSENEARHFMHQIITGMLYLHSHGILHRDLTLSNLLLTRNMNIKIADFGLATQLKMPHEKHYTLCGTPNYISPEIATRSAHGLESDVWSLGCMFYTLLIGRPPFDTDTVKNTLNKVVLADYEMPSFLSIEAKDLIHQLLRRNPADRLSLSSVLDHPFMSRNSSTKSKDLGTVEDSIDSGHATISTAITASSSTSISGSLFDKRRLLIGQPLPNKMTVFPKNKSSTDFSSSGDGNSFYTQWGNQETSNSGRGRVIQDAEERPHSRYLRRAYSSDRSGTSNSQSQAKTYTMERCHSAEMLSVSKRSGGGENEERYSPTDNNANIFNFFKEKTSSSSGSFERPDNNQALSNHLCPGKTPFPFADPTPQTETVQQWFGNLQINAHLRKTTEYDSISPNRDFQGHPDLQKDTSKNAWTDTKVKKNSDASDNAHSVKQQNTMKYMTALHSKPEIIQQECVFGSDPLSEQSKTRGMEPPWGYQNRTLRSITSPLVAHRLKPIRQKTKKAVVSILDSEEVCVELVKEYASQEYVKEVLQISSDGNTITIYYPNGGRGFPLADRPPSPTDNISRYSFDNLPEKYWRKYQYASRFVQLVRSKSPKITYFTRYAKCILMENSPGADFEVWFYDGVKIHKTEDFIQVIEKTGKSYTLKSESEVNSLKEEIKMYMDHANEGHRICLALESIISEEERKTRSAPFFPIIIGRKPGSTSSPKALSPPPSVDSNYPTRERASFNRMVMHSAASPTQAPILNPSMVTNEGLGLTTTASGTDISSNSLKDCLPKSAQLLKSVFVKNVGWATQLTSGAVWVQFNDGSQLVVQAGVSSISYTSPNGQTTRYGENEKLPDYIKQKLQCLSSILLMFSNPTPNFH
CDK1/CyclinB (h), sequence (P06493 whole entry): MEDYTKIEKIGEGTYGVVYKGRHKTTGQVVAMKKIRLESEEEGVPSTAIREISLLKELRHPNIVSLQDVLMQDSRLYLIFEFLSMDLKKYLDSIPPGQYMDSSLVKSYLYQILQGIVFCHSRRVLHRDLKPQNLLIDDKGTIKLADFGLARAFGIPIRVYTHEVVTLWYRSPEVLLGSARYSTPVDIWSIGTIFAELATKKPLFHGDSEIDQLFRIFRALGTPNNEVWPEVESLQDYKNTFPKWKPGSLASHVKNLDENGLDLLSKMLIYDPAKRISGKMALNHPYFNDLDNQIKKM
CDK1/CyclinB (h), sequence (P14635 whole entry partner): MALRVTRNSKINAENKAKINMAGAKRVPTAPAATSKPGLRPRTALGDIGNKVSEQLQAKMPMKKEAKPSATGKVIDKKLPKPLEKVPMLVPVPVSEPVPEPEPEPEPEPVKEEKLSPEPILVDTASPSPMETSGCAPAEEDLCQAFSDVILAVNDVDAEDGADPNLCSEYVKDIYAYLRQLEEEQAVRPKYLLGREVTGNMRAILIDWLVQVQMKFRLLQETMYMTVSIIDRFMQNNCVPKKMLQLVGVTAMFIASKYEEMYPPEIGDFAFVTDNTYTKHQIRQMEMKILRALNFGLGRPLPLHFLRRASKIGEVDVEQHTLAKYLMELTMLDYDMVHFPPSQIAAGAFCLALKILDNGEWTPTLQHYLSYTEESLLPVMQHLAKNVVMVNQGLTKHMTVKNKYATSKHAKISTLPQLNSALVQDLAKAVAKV
GSK3β (h), sequence (P49841 whole entry): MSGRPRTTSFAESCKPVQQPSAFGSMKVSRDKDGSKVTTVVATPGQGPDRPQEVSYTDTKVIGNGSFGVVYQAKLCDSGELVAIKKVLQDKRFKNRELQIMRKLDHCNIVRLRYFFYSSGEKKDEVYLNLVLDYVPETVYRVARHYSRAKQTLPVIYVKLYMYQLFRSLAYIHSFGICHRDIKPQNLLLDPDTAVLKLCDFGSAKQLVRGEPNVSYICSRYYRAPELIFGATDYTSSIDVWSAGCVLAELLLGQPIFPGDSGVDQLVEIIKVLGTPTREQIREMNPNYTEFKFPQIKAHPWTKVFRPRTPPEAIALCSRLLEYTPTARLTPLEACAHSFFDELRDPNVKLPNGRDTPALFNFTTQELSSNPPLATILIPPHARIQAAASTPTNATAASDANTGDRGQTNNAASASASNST
AuroraB (h), sequence (Q96GD4 whole entry): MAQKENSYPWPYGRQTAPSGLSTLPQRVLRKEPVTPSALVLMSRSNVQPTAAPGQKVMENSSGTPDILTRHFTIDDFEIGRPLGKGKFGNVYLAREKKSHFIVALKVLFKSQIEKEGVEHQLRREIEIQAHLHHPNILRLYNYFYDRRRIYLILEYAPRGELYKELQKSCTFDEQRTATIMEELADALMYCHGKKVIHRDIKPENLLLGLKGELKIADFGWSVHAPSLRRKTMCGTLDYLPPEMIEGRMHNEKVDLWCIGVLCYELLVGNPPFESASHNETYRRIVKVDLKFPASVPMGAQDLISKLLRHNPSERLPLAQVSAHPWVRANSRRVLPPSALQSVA

Row | Compound | IC50 (PLK4 (h)) | IC50 (AuroraB (h)) | IC50 (GSK3β (h)) | IC50 (CDK1/CyclinB (h)) | melting point | IC50 (SKOV3) | IC50 (HT-29) | IC50 (HCT-116) | IC50 (Colo205) | IC50 (H1299) | IC50 (A549) | IC50 (H460) | IC50 (MCF-7) | IC50 (DU-145) | IC50 (A431) | IC50 (PC-3) | IC50 (SK-N-SH) | IC50 (A2780) | IC50 (U87MG) | IC50 (MDA/MB231)
1 | CN1CC(=O)N(CCN2CCOCC2)CCC(=O)NCC#Cc2cccc3c2/C(=C/Nc2cccc(c2)S1(=O)=O)C(=O)N3 [Compound 5] | 4.17 µM | 8.32 µM | 8.13 µM | > 10 µM | > 240 °C |  |  |  |  |  |  |  |  |  |  |  |  |  |  | 
2 | CN1CCCC(=O)NCC#Cc2cccc3c2/C(=C/Nc2cccc(c2)S(=O)(=O)N(C)CC1=O)C(=O)N3 [Compound 3] | 3.16 µM | > 10 µM | 1.86 µM | > 10 µM | > 240 °C |  |  |  |  |  |  |  |  |  |  |  |  |  |  | 
3 | CN1CCCCCC(=O)N2CCN(CC2)c2ncnc3c2/C(=C/Nc2cccc(c2)C1)C(=O)N3 [Compound 24] | 1.51 µM | > 10 µM |  |  |  | > 10 µM | > 10 µM | > 10 µM | > 10 µM |  | > 10 µM | > 10 µM | > 10 µM | > 10 µM | > 10 µM | > 10 µM | > 10 µM | > 10 µM | > 10 µM | > 10 µM
4 | CC(C)N1CCCCCC(=O)N2CCN(CC2)c2ncnc3c2/C(=C/Nc2ccc(F)c(c2)C1)C(=O)N3 [Compound 28] | > 10 µM | > 10 µM | > 10 µM | > 10 µM |  | > 10 µM | > 10 µM |  | > 10 µM |  | > 10 µM | > 10 µM | > 10 µM | > 10 µM | > 10 µM | > 10 µM | > 10 µM |  |  | 

More lines, main results first:

Row | IC50 (PLK4 (h)) | IC50 (AuroraB (h)) | IC50 (GSK3β (h)) | IC50 (CDK1/CyclinB (h)) | melting point | IC50 (SKOV3) | IC50 (HT-29) | IC50 (HCT-116) | IC50 (Colo205) | IC50 (H1299) | IC50 (A549) | IC50 (H460) | IC50 (MCF-7) | IC50 (DU-145) | IC50 (A431) | IC50 (PC-3) | IC50 (SK-N-SH) | IC50 (A2780) | IC50 (U87MG) | Compound | IC50 (MDA/MB231)
5 |  | > 10 µM |  |  |  | > 10 µM | > 10 µM | > 10 µM | 7.76 µM | > 10 µM | > 10 µM | > 10 µM | > 10 µM | > 10 µM | > 10 µM | > 10 µM | 6.61 µM |  |  | O=C1Nc2ncnc3c2/C1=C/Nc1ccc(c(Cl)c1)OCCCCCCC(=O)N1CCN3CC1 [Compound 20] | > 10 µM
6 | 5.5 µM | > 10 µM |  |  |  | > 10 µM | > 10 µM | > 10 µM | > 10 µM |  | > 10 µM | > 10 µM | > 10 µM | > 10 µM | > 10 µM | > 10 µM | > 10 µM | > 10 µM | > 10 µM | O=C1Nc2ncnc3c2C1=CNc1ccc(cc1)S(=O)(=O)NCCCCC(=O)N1CCN3CC1 (mixture of isomers) [Compound 15] | > 10 µM
7 | 1.62 µM | > 10 µM |  |  |  | 4.68 µM | > 10 µM | > 10 µM | > 10 µM |  | 3.47 µM | > 10 µM | 8.13 µM | > 10 µM | > 10 µM | 10.7 µM | 3.31 µM | > 10 µM | 7.76 µM | COc1ccc2cc1OCCCC(=O)N1CCN(CC1)c1ncnc3c1/C(=C/N2)C(=O)N3 [Compound 17] | > 10 µM
8 | > 10 µM | > 10 µM |  |  |  | > 10 µM | > 10 µM | > 10 µM | > 10 µM |  | > 10 µM | > 10 µM | > 10 µM | > 10 µM | > 10 µM | > 10 µM | > 10 µM | > 10 µM | > 10 µM | O=C1Nc2ncnc3c2C1=CNc1cc(ccc1Cl)OCCCCC(=O)N1CCN3CC1 (mixture of isomers) [Compound 13] | > 10 µM
9 | > 10 µM | > 10 µM |  |  |  | > 10 µM | > 10 µM | > 10 µM | > 10 µM | > 10 µM | > 10 µM | > 10 µM | > 10 µM | > 10 µM | > 10 µM | > 10 µM | > 10 µM |  |  | O=C1Nc2ncnc3c2/C1=C/Nc1ccc(c(F)c1)OCCCCCC(=O)N1CCN3CC1 [Compound 22] | > 10 µM
10 | > 10 µM | > 10 µM |  |  |  | > 10 µM | > 10 µM | > 10 µM | > 10 µM | > 10 µM | > 10 µM | > 10 µM | > 10 µM | > 10 µM | > 10 µM | > 10 µM | > 10 µM |  |  | O=C1Nc2ncnc3c2C1=CNc1ccc(c(Cl)c1)OCCCCCC(=O)N1CCN3CC1 (mixture of isomers) [Compound 14] | > 10 µM
